Several values for one entry are separate records, joined by “and”; a condition that tells them apart may be missing. Identical values can stand only once.
Test system: 233499-124-R-J3-PDC complex spheroid viability
Experiment: Anticancer human tumor 233499-124-R-J3-PDC patient-derived colon adenocarcinoma cell line growth inhibition [CLK]
Settings: for viability, T/C: stronger effect = lower value
How it was run: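 Patient-derived tumor cells grown as complex spheroids with HUVEC endothelial cells and mesenchymal stem cells, treated with drug combinations. Concentrations descend in half-log steps from near clinical Cmax, or from 10 microM if Cmax unknown.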

[1] = curve of first compound, second compound 0.0316 µM
[2] = curve of first compound, second compound 0.1 µM
[3] = curve of first compound, second compound 0.316 µM
[4] = curve of first compound, second compound 1 µM
[5] = curve of first compound, second compound 3.16 µM
[6] = curve of first compound, second compound 10 µM
[7] = second compound 0.0316 µM, first compound 0.0316 µM
[8] = second compound 0.0316 µM, first compound 0.1 µM
[9] = second compound 0.1 µM, first compound 0.0316 µM
[10] = second compound 0.1 µM, first compound 0.1 µM
[11] = second compound 0.316 µM, first compound 0.0316 µM
[12] = second compound 0.316 µM, first compound 0.1 µM
[13] = second compound 1 µM, first compound 0.0316 µM
[14] = second compound 1 µM, first compound 0.1 µM
[15] = second compound 3.16 µM, first compound 0.0316 µM
[16] = second compound 3.16 µM, first compound 0.1 µM
[17] = second compound 10 µM, first compound 0.0316 µM
[18] = second compound 10 µM, first compound 0.1 µM
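Note: spheroids exposed to the drug combinations for seven days.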
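Throughout, for viability, T/C: percent viability relative to DMSO vehicle control wells taken as 100%.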

## Cn1ncnc1[C@H]1c2n[nH]c(=O)c3cc(F)cc(c23)N[C@@H]1c1ccc(F)cc1 + CN1CCN(c2cc(C(=O)Nc3cc4cc(-c5cnn(C)c5)ccc4cn3)ccn2)CC1
[1]
  IC50: > 0.1 µM
[2]
  IC50: > 0.1 µM
[3]
  IC50: > 0.1 µM
[4]
  IC50: < 0.000316 µM
[5]
  IC50: < 0.000316 µM
[6]
  IC50: < 0.000316 µM
Second compound 0.0316 µM, first compound 0.000316 µM
  viability, T/C: 91.2%
Second compound 0.0316 µM, first compound 0.001 µM
  viability, T/C: 108%
Second compound 0.0316 µM, first compound 0.00316 µM
  viability, T/C: 100%
Second compound 0.0316 µM, first compound 0.01 µM
  viability, T/C: 110%
[7]
  viability, T/C: 104%
[8]
  viability, T/C: 92.7%
Second compound 0.1 µM, first compound 0.000316 µM
  viability, T/C: 100%
Second compound 0.1 µM, first compound 0.001 µM
  viability, T/C: 105%
Second compound 0.1 µM, first compound 0.00316 µM
  viability, T/C: 89.5%
Second compound 0.1 µM, first compound 0.01 µM
  viability, T/C: 97.8%
[9]
  viability, T/C: 92.1%
[10]
  viability, T/C: 94.4%
Second compound 0.316 µM, first compound 0.000316 µM
  viability, T/C: 85.5%
Second compound 0.316 µM, first compound 0.001 µM
  viability, T/C: 103%
Second compound 0.316 µM, first compound 0.00316 µM
  viability, T/C: 101%
Second compound 0.316 µM, first compound 0.01 µM
  viability, T/C: 89.6%
[11]
  viability, T/C: 92.7%
[12]
  viability, T/C: 101%
Second compound 1 µM, first compound 0.000316 µM
  viability, T/C: 19.1%
Second compound 1 µM, first compound 0.001 µM
  viability, T/C: 2.31%
Second compound 1 µM, first compound 0.00316 µM
  viability, T/C: 5.38%
Second compound 1 µM, first compound 0.01 µM
  viability, T/C: 1.23%
[13]
  viability, T/C: 2.59%
[14]
  viability, T/C: 0.76%
Second compound 3.16 µM, first compound 0.000316 µM
  viability, T/C: 0.59%
Second compound 3.16 µM, first compound 0.001 µM
  viability, T/C: 0.64%
Second compound 3.16 µM, first compound 0.00316 µM
  viability, T/C: 0.58%
Second compound 3.16 µM, first compound 0.01 µM
  viability, T/C: 0.53%
[15]
  viability, T/C: 0.57%
[16]
  viability, T/C: 0.46%
Second compound 10 µM, first compound 0.000316 µM
  viability, T/C: 0.41%
Second compound 10 µM, first compound 0.001 µM
  viability, T/C: 0.43%
Second compound 10 µM, first compound 0.00316 µM
  viability, T/C: 0.45%
Second compound 10 µM, first compound 0.01 µM
  viability, T/C: 0.44%
[17]
  viability, T/C: 0.51%
[18]
  viability, T/C: 0.56%

## CC(CO)NC(=O)c1cc(-c2ccc(Cl)cc2)nn(-c2cnn(C)c2)c1=O (stereo unspecified)
Compound 0.0316 µM
  viability, T/C: 103% and 94.8%
Compound 0.1 µM
  viability, T/C: 95.2% and 90.1%
Compound 0.316 µM
  viability, T/C: 96.3% and 95.6%
Compound 1 µM
  viability, T/C: 96.8% and 92.9%
Compound 3.16 µM
  viability, T/C: 92.7% and 96%
Compound 10 µM
  viability, T/C: 89.7% and 83.2%
Curve of compound
  IC50: > 10 µM

## C#Cc1c(F)ccc2cc(O)cc(-c3ncc4c(N5CC6CCC(C5)N6)nc(OCC56CCCN5CC(F)C6)nc4c3F)c12 (stereo unspecified) + CNC(=O)c1ccc(Nc2nc(OC3CCCC3)c3c(-c4ccc5nc(C)oc5c4)c[nH]c3n2)c(OC)c1
[1]
  IC50: > 10 µM
[2]
  IC50: > 10 µM
[3]
  IC50: > 10 µM
[4]
  IC50: > 10 µM
[5]
  IC50: > 10 µM
[6]
  IC50: 5.76 µM
[7]
  viability, T/C: 98.8%
[8]
  viability, T/C: 98.2%
Second compound 0.0316 µM, first compound 0.316 µM
  viability, T/C: 86.5%
Second compound 0.0316 µM, first compound 1 µM
  viability, T/C: 91%
Second compound 0.0316 µM, first compound 3.16 µM
  viability, T/C: 75.9%
Second compound 0.0316 µM, first compound 10 µM
  viability, T/C: 88.7%
[9]
  viability, T/C: 76.5%
[10]
  viability, T/C: 62.8%
Second compound 0.1 µM, first compound 0.316 µM
  viability, T/C: 72.7%
Second compound 0.1 µM, first compound 1 µM
  viability, T/C: 75.8%
Second compound 0.1 µM, first compound 3.16 µM
  viability, T/C: 74.3%
Second compound 0.1 µM, first compound 10 µM
  viability, T/C: 57.7%
[11]
  viability, T/C: 90.3%
[12]
  viability, T/C: 74.9%
Second compound 0.316 µM, first compound 0.316 µM
  viability, T/C: 85.3%
Second compound 0.316 µM, first compound 1 µM
  viability, T/C: 68.3%
Second compound 0.316 µM, first compound 3.16 µM
  viability, T/C: 74.8%
Second compound 0.316 µM, first compound 10 µM
  viability, T/C: 55%
[13]
  viability, T/C: 78.3%
[14]
  viability, T/C: 78.9%
Second compound 1 µM, first compound 0.316 µM
  viability, T/C: 68.4%
Second compound 1 µM, first compound 1 µM
  viability, T/C: 56.8%
Second compound 1 µM, first compound 3.16 µM
  viability, T/C: 81.4%
Second compound 1 µM, first compound 10 µM
  viability, T/C: 55.2%
[15]
  viability, T/C: 54.4%
[16]
  viability, T/C: 73.1%
Second compound 3.16 µM, first compound 0.316 µM
  viability, T/C: 52.8%
Second compound 3.16 µM, first compound 1 µM
  viability, T/C: 70.8%
Second compound 3.16 µM, first compound 3.16 µM
  viability, T/C: 68.3%
Second compound 3.16 µM, first compound 10 µM
  viability, T/C: 53%
[17]
  viability, T/C: 75.5%
[18]
  viability, T/C: 77.7%
Second compound 10 µM, first compound 0.316 µM
  viability, T/C: 68.8%
Second compound 10 µM, first compound 1 µM
  viability, T/C: 68.4%
Second compound 10 µM, first compound 3.16 µM
  viability, T/C: 60.9%
Second compound 10 µM, first compound 10 µM
  viability, T/C: 40.6%
